Test results as given in the supplement of paper PMC10307832.

Key:
Assay in all cases: relative viability (nuclei count vs DMSO), 5 days (fraction); higher = more cells survive
Bemcentinib + Tozasertib = compound: Nc1nc(Nc2ccc3c(c2)CC[C@@H](N2CCCC2)CC3)nn1-c1cc2c(nn1)-c1ccccc1CCC2 [Bemcentinib] + Cc1cc(Nc2cc(N3CCN(C)CC3)nc(Sc3ccc(NC(=O)C4CC4)cc3)n2)n[nH]1 [Tozasertib] (partner 0.1 µM)
In short: (§1)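 Lung cancer cell lines were pin-tool dosed in 1536-well plates on the day after seeding, with either a lone drug or a fixed anchor-drug dose plus five library-drug doses (not always all listed) in √10 steps. Nuclei were counted on 4× images after 5 days. Relative viability is the ratio of treated-well to vehicle-well nuclei counts, with each value a median of duplicate plates.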

Bemcentinib + Dasatinib = compound: Nc1nc(Nc2ccc3c(c2)CC[C@@H](N2CCCC2)CC3)nn1-c1cc2c(nn1)-c1ccccc1CCC2 [Bemcentinib] + Cc1nc(Nc2ncc(C(=O)Nc3c(C)cccc3Cl)s2)cc(N2CCN(CCO)CC2)n1 [Dasatinib] (partner 0.075 µM)
In short: as §1

Axitinib + Alpelisib = compound: CNC(=O)c1ccccc1Sc1ccc2c(/C=C/c3ccccn3)n[nH]c2c1 [Axitinib] + Cc1nc(NC(=O)N2CCC[C@H]2C(N)=O)sc1-c1ccnc(C(C)(C)C(F)(F)F)c1 [Alpelisib] (partner 2 µM)
In short: as §1

Axitinib + Vorinostat = compound: CNC(=O)c1ccccc1Sc1ccc2c(/C=C/c3ccccn3)n[nH]c2c1 [Axitinib] + O=C(CCCCCCC(=O)Nc1ccccc1)NO [Vorinostat] (partner 1 µM)
In short: as §1

| Cell Line | relative viability (Bemcentinib + Tozasertib; first compound 0.04 µM) | relative viability (Bemcentinib + Tozasertib; first compound 0.1265 µM) | relative viability (Bemcentinib + Tozasertib; first compound 0.4 µM) | relative viability (Bemcentinib + Tozasertib; first compound 1.265 µM) | relative viability (Bemcentinib + Tozasertib; first compound 4 µM) | relative viability (Bemcentinib + Dasatinib; first compound 0.04 µM) | relative viability (Bemcentinib + Dasatinib; first compound 0.1265 µM) | relative viability (Bemcentinib + Dasatinib; first compound 0.4 µM) | relative viability (Bemcentinib + Dasatinib; first compound 1.265 µM) | relative viability (Bemcentinib + Dasatinib; first compound 4 µM) | relative viability (Axitinib + Alpelisib; first compound 0.005 µM) | relative viability (Axitinib + Alpelisib; first compound 0.01581 µM) | relative viability (Axitinib + Alpelisib; first compound 0.05 µM) | relative viability (Axitinib + Alpelisib; first compound 0.1581 µM) | relative viability (Axitinib + Alpelisib; first compound 0.5 µM) | relative viability (Axitinib + Vorinostat; first compound 0.005 µM) | relative viability (Axitinib + Vorinostat; first compound 0.01581 µM) | relative viability (Axitinib + Vorinostat; first compound 0.05 µM) | relative viability (Axitinib + Vorinostat; first compound 0.1581 µM) | relative viability (Axitinib + Vorinostat; first compound 0.5 µM) |
| --- | --- | --- | --- | --- | --- | --- | --- | --- | --- | --- | --- | --- | --- | --- | --- | --- | --- | --- | --- | --- |
| SK-MES-1 | 0.977 | 0.908 | 1.09 | 1.03 | 0.968 | 0.303 | 0.416 | 0.384 | 0.477 | 0.426 | 0.981 | 0.974 | 1.04 | 0.943 | 1.12 | 1.1 | 1.12 | 1.25 | 1.02 | 1.27 |
| NCI-H1648 | 0.571 | 0.424 | 0.584 | 0.391 | 0.49 |  |  |  |  |  |  |  |  |  |  | 0.37 | 0.514 | 0.316 | 0.34 | 0.363 |
| PC-3 [JPC-3] | 0.852 | 0.927 | 0.897 | 0.941 | 0.863 | 1.04 | 0.589 | 1.19 | 1.01 | 1.08 | 1.09 |  | 1 | 1.04 | 1.12 | 0.787 |  | 0.94 | 0.758 | 0.857 |
| NCI-H1666 | 0.605 | 0.619 | 0.621 | 0.594 | 0.595 | 0.755 | 0.781 | 0.806 | 0.773 | 0.781 | 1.12 | 0.918 | 0.942 | 1.05 | 1.1 | 1.07 | 1.14 | 1.02 | 1.09 | 1.11 |
| IA-LM |  |  |  |  |  |  |  |  |  |  | 0.79 | 0.883 | 0.733 | 0.761 | 0.619 | 1.02 | 1.02 | 0.974 | 0.934 | 0.973 |
| HCC-78 | 0.43 | 0.445 | 0.421 |  | 0.355 | 0.403 | 0.201 | 0.433 |  | 0.363 | 0.34 | 0.328 | 0.3 | 0.322 | 0.366 | 0.437 | 0.407 | 0.333 | 0.348 | 0.404 |
| HCC-366 | 0.125 | 0.101 | 0.119 | 0.149 | 0.11 | 0.544 | 0.621 | 0.621 | 0.852 | 0.659 | 0.616 | 0.482 | 0.505 | 0.387 | 0.619 | 0.666 | 0.414 | 0.447 | 0.333 | 0.395 |
| NCI-H520 | 0.526 | 0.379 | 0.411 | 0.452 | 0.484 | 0.197 | 0.194 | 0.257 | 0.206 | 0.23 | 0.923 | 0.951 | 0.91 | 0.784 | 0.899 | 0.797 | 0.678 | 0.686 | 0.691 | 0.801 |
| A549 |  |  |  |  |  |  |  |  |  |  | 0.79 | 0.741 | 0.775 | 0.753 | 0.874 |  |  |  |  |  |
| NCI-H2342 | 0.574 | 0.429 | 0.492 | 0.464 | 0.516 | 0.316 | 0.318 | 0.313 | 0.264 | 0.308 |  |  |  |  |  | 0.98 | 0.784 | 0.666 | 0.665 | 0.72 |
| ChaGo-K-1 | 0.217 | 0.254 | 0.213 | 0.229 | 0.221 | 0.591 | 0.614 | 0.636 | 0.496 | 0.481 |  |  |  |  |  | 0.727 | 0.754 | 0.797 | 0.746 | 0.737 |
| HCC-44 | 0.913 | 1.46 | 0.872 | 0.956 | 0.888 |  |  |  |  |  | 0.842 | 0.881 | 0.873 | 0.834 | 0.89 | 1.04 | 1.15 | 1.11 | 1.09 | 1.13 |
| NCI-H522 | 0.561 | 0.598 | 0.638 | 0.62 | 0.538 | 0.768 | 0.975 | 0.886 | 0.844 | 0.829 |  |  |  |  |  | 0.919 | 0.909 | 0.863 | 0.855 | 0.702 |
| NCI-H1563 |  |  |  |  |  | 0.403 | 0.429 | 0.448 | 0.413 | 0.444 | 1.04 | 0.916 | 0.951 | 0.892 | 0.986 |  |  |  |  |  |
| NCI-H1703 |  |  |  |  |  |  |  |  |  |  | 0.264 | 0.214 | 0.186 | 0.171 | 0.243 |  |  |  |  |  |
| Calu-6 |  |  |  |  |  |  |  |  |  |  | 0.847 | 0.997 | 1.02 | 1.01 | 1.18 |  |  |  |  |  |
| NCI-H1792 |  |  |  |  |  | 0.859 | 0.956 | 1.17 | 0.91 | 0.873 | 0.797 | 0.715 | 0.671 | 0.699 | 0.683 |  |  |  |  |  |
| EBC-1 |  |  |  |  |  |  |  |  |  |  | 0.904 | 0.863 | 0.806 | 0.738 | 1.07 |  |  |  |  |  |
| SW 900 | 0.458 | 0.807 | 0.54 | 0.611 | 0.529 | 0.587 | 0.672 | 0.586 | 0.493 | 0.563 |  |  |  |  |  | 0.51 |  | 0.434 | 0.472 | 0.829 |
| NCI-H1299 |  |  |  |  |  |  |  |  |  |  | 0.987 | 1.01 | 1.06 | 1.06 | 1.1 |  |  |  |  |  |
| NCI-H1650 | 0.386 | 0.382 | 0.44 | 0.288 | 0.373 | 0.344 | 0.382 | 0.347 | 0.346 | 0.321 |  |  |  |  |  | 0.699 | 0.616 | 0.694 | 0.5 | 0.754 |
| NCI-H1623 | 0.427 | 0.438 | 0.455 | 0.461 | 0.442 | 0.51 | 0.504 | 0.528 | 0.639 | 0.473 |  |  |  |  |  |  |  |  |  |  |
